Data set [1] in a line: refractive index (Na D-line) (dimensionless). The following applies: 298.2 K; 101.33 kPa; Liquid; Standard Abbe refractometry.
The conditions of data set [2]: 298.2 K; 101.33 kPa; Liquid; Vibrating tube method.

± gives the expanded uncertainty stated by the source.

One may read the refractive index as a measure of how strongly the sample bends light. As usually defined, the mass density is mass per unit of volume.

For `O` [water], the refractive index in data set [1] is reported as 1.3324 ± 0.002. Also, the mass density in data set [2] turned out to be 999.9 ± 2 kg/m3.
For `CC(=O)Oc1ccccc1` [phenyl ethanoate], in that order: 1.5012 ± 0.002 and 1073 ± 2 kg/m3.
Take `CCCC(=O)O` [butanoic acid]: the refractive index in data set [1] is on record as 1.3964 ± 0.002. Further, the mass density in data set [2] was 952.8 ± 2 kg/m3.

These data come from the NIST ThermoML archive (doi:10.1021/acs.jced.5b00950).
